Source: BindingDB's records for doi:10.1016/j.ejmech.2019.04.053 (China Pharmaceutical University, 2019)

Test: Inhibition of human TRKA expressed in human TF1 cells by CellTiter-Glo Luminescent assay

Which IC50 does the source give for `COCC[C@@H]1C[C@@H](NC(=O)Nc2c(C)c(-c3cnn(C)c3)nn2-c2ccccc2)[C@H](c2cnc(Cl)c(F)c2)N1` here?
The IC50 was under 100 nM.

For `COCC[C@@H]1C[C@@H](NC(=O)Nc2c(C)c(-c3cnc4c(c3)c(N=S(C)(C)=O)nn4C)nn2-c2ccccc2)[C@H](c2ccc(F)c(F)c2)N1`, which IC50 is on record?
Its IC50 is under 100 nM.

Which IC50 does the source give for `Cc1c(OCC2CCN(C)CC2)nn(-c2ccccc2)c1NC(=O)N[C@H]1CN(CC(F)(F)F)[C@@H]2COc3ccccc3[C@H]12` here?
Its IC50 is 0.64 nM.

For `COCC[C@@H]1C[C@@H](NC(=O)Nc2c(C)c(-c3cnn(C)c3)nn2-c2ccccc2)[C@@H]2c3ccccc3C(F)(F)CN12`, which IC50 is on record?
Its IC50 is 0.64 nM.

With `COCCN1C[C@@H](NC(=O)Nc2c(C)c(-c3cnn(C)c3)nn2-c2ccccc2)[C@@H]2c3ccccc3CC[C@H]21` as the compound, how does the IC50 read?
The IC50 was 0.59 nM.
